Reference: article PMC7457613 (bioRxiv, 2021)
“And” between values parts separate entries of the source, which are not always exact repeats. Identical values can stand only once. Like-named read-outs stand apart in the source and are kept apart here.

Tests used:
SARS-CoV-2 USA-WA1/2020 [1] = experiment: microbe, parasite or virus in culture; format: cell-based
[2] = test system: SARS-CoV-2 USA/NYU-VC-003/2020; experiment: microbe, parasite or virus in culture; format: cell-based
SARS-CoV-2 USA-WA1/2020 [3] = experiment: Time-of-drug-addition assay in A549+ACE2 cells; format: cell-based; settings: 12 hpi
SARS-CoV-2 USA-WA1/2020 [4] = format: cell-based; settings: for SARS-CoV-2 infectious titers in apical washes: 10 μM basolateral, washes in 12 h increments up to 72 h; for number of SARS-CoV-2-N-expressing infected cells in HAEC: 10 μM, 72 h endpoint, immunofluorescence
[5] = test system: polarized human airway epithelial cultures (HAEC)
BCi-NS1.1 cells = settings: dose range up to 10 μM, 48 hours
COVID-19 = settings: patients with more advanced infection, intravenous ref 55; cited from earlier work
in vitro = settings: human
SARS-CoV-2 = settings: cited from earlier work
coronavirus 3CL^pro = settings: cited from earlier work
[6] = Severe acute respiratory syndrome coronavirus 2, A549-ACE2

SMILES | EC50 (SARS-CoV-2 USA-WA1/2020 [1]) | protection of A549+ACE2 cells from ring syncytia formation (CPE) (SARS-CoV-2 USA-WA1/2020 [1]) | EC50 [2] | minimum treatment dose that led to undetectable infection levels (SARS-CoV-2 USA-WA1/2020 [3]) [µM] | SARS-CoV-2 infectious titers in apical washes (SARS-CoV-2 USA-WA1/2020 [4]) | number of SARS-CoV-2-N-expressing infected cells in HAEC (SARS-CoV-2 USA-WA1/2020 [4]) | adverse effects on morphology of HAEC (histology) [5] | trans-epithelial resistance (TEER) over time [5] | ATP levels as a measure of cell viability (BCi-NS1.1 cells) | protection of A549+ACE2 cells from virus-induced CPE (SARS-CoV-2 USA-WA1/2020 [1]) | EC90 [2] | CC50 (A549+ACE2 cells) [µM] | other results
CCC(CC)COC(=O)[C@H](C)N[P@](=O)(OC[C@H]1O[C@@](C#N)(c2ccc3c(N)ncnn23)[C@H](O)[C@@H]1O)Oc1ccccc1 [remdesivir] | 238 nM | fully protected | 238 nM | 10 | viral titers below the limit of detection at most time points | number of infected cells significantly reduced | Neither drug caused measurable adverse effects on the morphology | negatively impacted TEER over time, albeit not statistically significantly | caused a reduction in ATP levels compared to carrier control, albeit not statistically significantly |  |  |  | EC50 (SARS-CoV-2 USA-WA1/2020 [1]; [6]): 442 nM; EC50 [2, 6]: 283 nM; EC90 [2, 6]: 589 nM; patients with benefit (COVID-19): 68%; CC50 (in vitro): > 10 µM
COc1cccc2[nH]c(C(=O)N[C@@H](CC(C)C)C(=O)N[C@@H](C[C@@H]3CCNC3=O)C(=O)CO)cc12 [PF-00835231] |  | fully protected | 184 nM and 326 nM | 3 | viral titers below the limit of detection at most time points | number of infected cells significantly reduced | Neither drug caused measurable adverse effects on the morphology | did not observe this trend | did not detect a decrease in ATP | fully protected | 591 nM and 1170 nM | > 10 | change in antiviral efficacy when blocking MDR1 activity (SARS-CoV-2 USA-WA1/2020 [1]): no changes in antiviral efficacy; change in antiviral efficacy when blocking MDR1 activity (SARS-CoV-2 USA-WA1/2020 [4]): no changes in antiviral efficacy; effect of chemical inhibition of MDR1 on antiviral efficacy (SARS-CoV-2; Vero E6 cells ref 9, 14): significantly increased; EC50 (SARS-CoV-2; Vero E6 cells ref 9): 270 nM; inhibition of 3CL^pro protease activity (coronavirus 3CL^pro): potent inhibition
CC(C)C[C@H](NC(=O)OCc1ccccc1)C(=O)N[C@@H](CC1CCNC1=O)C(O)S(=O)(=O)[O-].[Na+] (some centres unmarked) [GC-376] | 623 nM and 696 nM |  | 529 nM | 10 |  |  |  |  |  | unable to protect cells from virus-induced CPE | 2730 nM | > 10 | EC90 (SARS-CoV-2 USA-WA1/2020 [1]): 4.55 µM and 5.25 µM; EC50 (SARS-CoV-2; Vero E6 cells ref 11): 900 nM
